Data as given in patent US20230233569A1 (Revolution Medicines, Inc., priority 2020, published 2023).
pEC50, pIC50: −log10 of the molar value.

Columns and labels:
[1] = system: K-Ras G12C (NCI-H358 cells); assay: Potency assay: pERK (AlphaLISA SureFire or In-Cell Western); type: cell-based; details: Homo sapiens, NCI-H358; H358 KRAS G12C; read-out: pERK EC50
In short: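 Cellular pERK decrease measured after 4 h compound exposure (37 °C, 5% CO2) of NCI-H358 cells, 10-point 3-fold series from 10 mM DMSO stock, duplicates. Detection either by In-Cell Western (IR-800CW secondary, DRAQ5 stain) or AlphaLISA SureFire Ultra p-ERK1/2; 4-parameter sigmoidal fit gave IC50.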

KRAS Q61H = KRAS Q61H (Homo sapiens, UniProt P01116+P62937, Q61H); assay: Disruption of BRAF RBD interaction with Ras (FRET / MOA assay, with Cyclophilin A); type: biochemical; details: KRAS Q61H; read-out: KRAS Q61H FRET data IC50
Chain of KRAS Q61H (P01116 1-169 isoform P01116-2 Q61H limits assumed): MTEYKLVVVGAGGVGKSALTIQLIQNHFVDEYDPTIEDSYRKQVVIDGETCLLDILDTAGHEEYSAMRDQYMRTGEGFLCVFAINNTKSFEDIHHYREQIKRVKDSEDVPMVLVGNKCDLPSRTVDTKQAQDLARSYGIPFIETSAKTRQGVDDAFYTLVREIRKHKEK
Chain of KRAS Q61H (P62937 whole entry): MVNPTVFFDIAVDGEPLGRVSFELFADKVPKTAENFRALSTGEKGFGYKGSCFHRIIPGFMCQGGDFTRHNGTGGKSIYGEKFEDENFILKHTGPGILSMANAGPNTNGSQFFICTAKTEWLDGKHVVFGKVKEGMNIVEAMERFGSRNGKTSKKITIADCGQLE
In short: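 IC50 reflects compound-driven Ras:Cyclophilin A ternary complex displacing BRAF RBD, read as lowered TR-FRET ratio relative to DMSO after Eu anti-His (10 nM) and APC anti-GST (50 nM) detection for 1.5 h. Prior incubation 3 h, 25° C, with 12.5 nM GMPPNP-loaded Ras, 50 nM BRAF RBD, 25 μM Cyclophilin A; top compound 30 μM.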

NCI-H358 (K-Ras G12C) = assay: CellTiter-Glo cell viability assay, 5-day treatment; type: cell-based; details: Homo sapiens, NCI-H358, H358, K-Ras G12C; read-out: Additional H358 Cell Viability assay data (K-Ras G12C, IC50)
In short: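 Viability is read as luminescence on day 5 after direct compound addition to plated cells, following about 30 minutes' room-temperature equilibration. Each signal is scaled to mean DMSO as 100%.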

Row | SMILES | pEC50 [1] | pIC50 (KRAS Q61H) | pIC50 (NCI-H358 (K-Ras G12C))
1 | C=CC(=O)N1CC[C@H](C(=O)N(C)[C@H](C(=O)N[C@H]2Cc3nsc(n3)-c3ccc4c(c3)c(c(-c3cccnc3[C@H](C)OC)n4CC)CC(C)(C)COC(=O)[C@@H]3CCCN(N3)C2=O)C(C)C)C1 (atropisomer, axis not shown) [Example A694] | > 5.30 | 6.00 to 7.00 | 7.00 to 8.00
2 | CCn1c(-c2cccnc2[C@H](C)OC)c2c3cc(ccc31)-c1csc(n1)C[C@H](NC(=O)[C@H](C(C)C)N(C)C(=O)N1CC(N(C)C(=O)C#CC(C)(C)N3CCC3)C1)C(=O)N1CCC[C@H](N1)C(=O)OCC(C)(C)C2 [Example A379] | > 5.30 | 7.00 to 8.00 | > 8.00
3 | CCn1c(-c2cccnc2[C@H](C)OC)c2c3cc(ccc31)N1CCO[C@@](C)(CC(NC(=O)[C@H](C(C)C)N(C)C(=O)C3(F)CCN(C(=O)C#CC(C)(C)N(C)C)CC3)C(=O)N3CCC[C@H](N3)C(=O)OCC(C)(C)C2)C1 (stereo partly drawn) [Example A550] | > 5.30 | 5.00 to 6.00 | > 8.00
4 | C=CC(=O)N1CC(OC[C@H](C(=O)N[C@H]2Cc3cc(F)cc(c3)-c3ccc4c(c3)c(c(-c3cccnc3[C@H](C)OC)n4CC)CC(C)(C)COC(=O)[C@@H]3CCCN(N3)C2=O)C(C)C)C1 (atropisomer, axis not shown) [Example A725] | > 5.30 | 6.00 to 7.00 | 7.00 to 8.00
5 | C=CC(=O)N1CC[C@H](C(=O)N(C)[C@H](C(=O)N[C@H]2Cc3cc(O)cc(c3)-c3ccc4c(c3)c(c(-c3cccnc3)n4C3CC3)CC(C)(C)COC(=O)[C@@H]3CCCN(N3)C2=O)C(C)C)C1 [Example A160] | > 5.30 | 5.00 to 6.00 | 6.00 to 7.00
6 | CO[C@@H](COC1CN(C(=O)C#CC(C)(C)N(C)C)C1)C(=O)N[C@H]1Cc2cccc(c2)-c2ccc3c(c2)c(c(-c2cccnc2[C@H](C)OC)n3CC(F)(F)F)CC(C)(C)COC(=O)[C@@H]2CCCN(N2)C1=O [Example A556] | > 5.30 |  | > 8.00
7 | C=CC(=O)N1CCO[C@H]2CN(C(=O)N(C)[C@H](C(=O)N[C@H]3CN4CCC=C(C4)c4ccc5c(c4)c(c(-c4cccnc4[C@H](C)OC)n5CC)CC(C)(C)COC(=O)[C@@H]4CCCN(N4)C3=O)C(C)C)C[C@H]21 [Example A552] | > 5.30 | 6.00 to 7.00 | > 8.00
8 | C=CC(=O)N1CCC2(C1)CN(C(=O)N(C)[C@H](C(=O)N[C@H]1Cc3nc(cs3)-c3ccc4c(c3)c(c(-c3cccnc3[C@H](C)OC)n4CC(F)(F)F)CC(C)(C)COC(=O)C3CCCN(N3)C1=O)C(C)C)C2 (stereo partly drawn) [Example A603] | > 5.30 | 7.00 to 8.00 | 7.00 to 8.00
9 | C=CC(=O)N(C)C1CCN(C(=O)N(C)[C@H](C(=O)N[C@H]2Cc3nc(cs3)-c3ccc4c(c3)c(c(-c3cccnc3[C@H](C)OC)n4CC)CC(C)(C)COC(=O)[C@@H]3CCCN(N3)C2=O)C(C)C)C1 (stereo partly drawn) [Example A384] | > 5.30 | 7.00 to 8.00 | > 8.00
10 | C=CC(=O)N1CCOC2(CCN(C(=O)N(C)[C@H](C(=O)N[C@H]3Cc4cc(CF)cc(c4)-c4ccc5c(c4)c(c(-c4cccnc4[C@H](C)OC)n5CC(F)(F)F)CC(C)(C)COC(=O)C4CCCN(N4)C3=O)C(C)C)CC2)C1 (stereo partly drawn) [Example A605] | > 5.30 | 7.00 to 8.00 | 7.00 to 8.00
11 | C=CC(=O)N1CCOC2(CCN(C(=O)N(C)[C@H](C(=O)N[C@H]3CN4CCC=C(C4)c4ccc5c(c4)c(c(-c4cccnc4[C@H](C)OC)n5CC)CC(C)(C)COC(=O)[C@@H]4CCCN(N4)C3=O)C(C)C)CC2)C1 [Example A563] | > 5.30 | 5.00 to 6.00 | 6.00 to 7.00
12 | CCn1c(-c2cccnc2[C@H](C)OC)c2c3cc(ccc31)-c1csc(n1)C[C@H](NC(=O)[C@H](COC1CN(C(=O)C#CC(C)(C)N(C)C)C1)OC)C(=O)N1CCC[C@H](N1)C(=O)OCC(C)(C)C2 (atropisomer, axis not shown) [Example A705] | > 5.30 | 5.00 to 6.00 | > 8.00
13 | CCn1c(-c2cccnc2[C@H](C)OC)c2c3cc(ccc31)N1CCO[C@@H](C[C@H](NC(=O)[C@H](C(C)C)N(C)C(=O)[C@@]3(F)CCN(C(=O)C#CC(C)(C)N4CCC4)C3)C(=O)N3CCC[C@H](N3)C(=O)OCC(C)(C)C2)C1 [Example A726] | > 5.30 |  | > 8.00

Continued, values first:

Row | pEC50 [1] | pIC50 (KRAS Q61H) | pIC50 (NCI-H358 (K-Ras G12C)) | SMILES
14 | > 5.30 | 5.00 to 6.00 |  | C=CC(=O)N1CC[C@H](C(=O)N(C)[C@H](C(=O)N[C@H]2Cc3cc(O)cc(c3)-c3cnc4c(c3)c(c(-c3ccccc3CCOC)n4CC)CC(C)(C)COC(=O)[C@@H]3CCCN(N3)C2=O)C(C)C)C1 [Example A210]
15 | > 5.30 | 7.00 to 8.00 | 7.00 to 8.00 | C=CC(=O)N1CC[C@@H](N(C)C(=O)N(C)[C@H](C(=O)N[C@H]2Cc3nc(cs3)-c3ccc4c(c3)c(c(-c3cccnc3[C@H](C)OC)n4CC)CC(C)(C)COC(=O)[C@@H]3CCCN(N3)C2=O)C(C)C)C1 [Example A349]
16 | > 5.30 | 7.00 to 8.00 | 6.00 to 7.00 | C=CC(=O)N1CCOC2(CCN(C(=O)N(C)[C@H](C(=O)N[C@H]3Cc4nc(n(C)n4)-c4ccc5c(c4)c(c(-c4cccnc4[C@H](C)OC)n5CC(F)(F)F)CC(C)(C)COC(=O)C4CCCN(N4)C3=O)C(C)C)CC2)C1 (stereo partly drawn) [Example A606]
17 | > 5.30 | 7.00 to 8.00 | 7.00 to 8.00 | C=CC(=O)N1CCOC2(CCN(C(=O)N(C)[C@H](C(=O)N[C@H]3Cc4cccc(c4)-c4ccc5c(c4)c(c(-c4cccnc4[C@H](C)OC)n5CC(F)(F)F)CC(C)(C)COC(=O)C4CCCN(N4)C3=O)C(C)C)CC2)C1 (stereo partly drawn) [Example A608]
18 | > 5.30 | 5.00 to 6.00 | 7.00 to 8.00 | CCn1c(-c2cccnc2[C@H](C)OC)c2c3cc(ccc31)-c1cccc(c1)C[C@H](NC(=O)[C@H](C(C)C)N1CC[C@]3(CCN(C(=O)C#C[C@@H]4COCCN4C4COC4)C3)C1=O)C(=O)N1CCC[C@H](N1)C(=O)OCC(C)(C)C2 [Example A565]
19 | > 5.30 | 7.00 to 8.00 | > 8.00 | C=CC(=O)N1CC[C@@]2(CCN2C(=O)N(C)[C@H](C(=O)N[C@H]2Cc3nc(cs3)-c3ccc4c(c3)c(c(-c3cccnc3[C@H](C)OC)n4CC)CC(C)(C)COC(=O)C3CCCN(N3)C2=O)N(C)C)C1 (single isomer, unassigned) [Example A661]
20 | > 5.30 | 7.00 to 8.00 | > 8.00 | C=CC(=O)N1CC[C@H](C(=O)N(C)[C@H](C(=O)N[C@H]2Cc3cc(O)cc(c3)-c3ccc4c(c3)c(c(-c3ccnc5c3[C@@H](OC)CC5)n4CC)CC(C)(C)COC(=O)[C@@H]3CCCN(N3)C2=O)C(C)C)C1 [Example A275]
21 | > 5.30 | 6.00 to 7.00 | > 8.00 | C=CC(=O)N1CCO[C@H]2CN(C(=O)N(C)[C@H](C(=O)N[C@H]3Cc4cccc(c4)-c4ccc5c(c4)c(c(-c4cccnc4[C@H](C)OC)n5CC)CC(C)(C)COC(=O)C4CCCN(N4)C3=O)C(C)C)C[C@H]21 (stereo partly drawn) [Example A610]
22 | > 5.30 | 7.00 to 8.00 | > 8.00 | C=CC(=O)N1CCO[C@H]2CCN(C(=O)N(C)[C@H](C(=O)N[C@H]3Cc4nc(cs4)-c4ccc5c(c4)c(c(-c4cccnc4[C@H](C)OC)n5CC)CC(C)(C)COC(=O)C4CCCN(N4)C3=O)C(C)C)C[C@@H]21 (stereo partly drawn) [Example A609]
23 | > 5.30 | 5.00 to 6.00 | 6.00 to 7.00 | C=CC(=O)N1CC[C@]2(C1)OCN(C(=O)N(C)[C@H](C(=O)N[C@H]1Cc3cccc(n3)-c3ccc4c(c3)c(c(-c3cccnc3[C@H](C)OC)n4CC)CC(C)(C)COC(=O)[C@@H]3CCCN(N3)C1=O)C(C)C)C2=O (atropisomer, axis not shown) [Example A652]
